Assay results reported in patent publication US12558356B2, “Immunophilin binding agents and uses thereof” (The Regents of the University of California, priority 2019, dated 2026).

Legend:
[1] = tested on: p-Tyr signaling in Jurkat cells; assay: Phosphotyrosine / TCR signaling in Jurkat cells (Western blot); type: cell-based
Method: Jurkat cells (1×10^6/mL) were treated with 100 nM of the indicated compounds for 1 h, then were washed 3 times with PBS and resuspended in culture media. Samples were taken at the indicated time points and lysed immediately.

[2] = tested on: K562 cells; assay: Growth inhibition of K562 cells; type: cell-based
[3] = target: T1, Src kinase domain and FKBP12 (Homo sapiens (Human), UniProt P12931+P62942); assay: Ternary complex formation of Src, FKBP12 and compound; type: binding
Method: Fractions of 0.5 mL were collected and analyzed by SDS-PAGE.
Pulldown was performed with Jurkat cell lysate (1 mg/mL, 200 μL), supplemented with 2 μg HA-FKBP12.

[4] = target: T2, FKBP12 (Homo sapiens (Human), UniProt P62942); assay: FKBP12 binding assay (fluorescence polarization); conditions: fluorescence polarization assay; read-out: Kd (binding to FKBP12)
[5] = target: Src (Homo sapiens (Human), UniProt P12931); type: biochemical
[6] = target: Csk (Homo sapiens (Human), UniProt P41240); assay: In vitro kinase assay, ATP at apparent Km; type: biochemical
[7] = target: DDR2 (Homo sapiens (Human), UniProt Q16832); assay: In vitro kinase assay, ATP at apparent Km; type: biochemical
[8] = tested on: panel of 485 protein kinases; assay: Kinase selectivity profiling; type: biochemical; conditions: 485 kinases, 10 nM inhibitor, 10 μM FKBP12
[9] = target: T1, Src kinase domain and FKBP12; assay: Ternary complex formation by size exclusion chromatography; type: binding; conditions: ~50 kDa complex
[10] = target: T1, Src kinase domain and FKBP12; assay: Differential scanning fluorimetry; type: binding
[11] = target: Src / HA-FKBP12 (Homo sapiens (Human), UniProt P12931+P62942); assay: Co-immunoprecipitation of Src with HA-FKBP12 in Jurkat cell lysates; type: binding
[12] = tested on: Jurkat cells; assay: CD3 crosslinking (OKT3)-triggered T cell activation, phosphotyrosine Western blot; type: cell-based
[13] = tested on: 139 kinases captured by the probe in Jurkat cells; assay: XO44 chemoproteomic probe kinome occupancy in live cells; type: cell-based; conditions: 100 nM, among 139 kinases captured by XO44 in Jurkat cells
[14] = tested on: Jurkat cells; assay: Drug washout, phosphotyrosine recovery (residence time in cells); type: cell-based; conditions: 100 nM for 1 h, then drug removed
[15] = tested on: K562 cells; assay: Growth inhibition of K562 cells; type: cell-based; remark: listed apart in the source
Source text: The unique dependency of FK506-dasatinib on FKBP proteins implied that it may be exploited to modulate the function of these molecules. […]. Meanwhile, the blocker compound […] dasatinib-treated samples (FIG. 13A, lanes 2 and 5). […].

[16] = target: Src, Csk and DDR2
[17] = target: T2, FKBP12; assay: FKBP12 binding
[18] = target: KRAS^G12C and CypA (Homo sapiens (Human), UniProt P01116+P62937, G12C); assay: Complex of labeled KRAS G12C with CypA; type: binding
[19] = target: Ras•GDP / Sos (Homo sapiens (Human), UniProt P01112+P62937, M72C); assay: HRAS/CypA ternary complex and Sos-mediated nucleotide exchange; type: biochemical
Method: FIG. 56. […] Assay conditions: 1 μM Ras•GDP, 1 μM Mant-GDP, 20 mM EPES 7.5, 150 mM NaCl, 10 mM EDTA or 1 μM Sos. 95A is synonymous to ZZY06-031.

[20] = tested on: Ras•Raf; assay: Ras•Raf binding pulldown; conditions: 100 nM KRAS
Method: FIG. 57. […] Pulldown conditions: 100 nM KRAS, 50 μg/mL BSA, 20 mM HEPES 7.5, 150 mM NaCl, 5 mM MgCl2, 1 mM […], 1% NP-40. GppNHp loaded proteins were prepared by EDTA-mediated nucleotide exchange.

[21] = 10 μM recombinant FKBP12 in assay buffer
[22] = standard assay conditions, no FKBP12

T1 sequence (P12931 whole entry, looked up, species assumed, the tested form may be a part): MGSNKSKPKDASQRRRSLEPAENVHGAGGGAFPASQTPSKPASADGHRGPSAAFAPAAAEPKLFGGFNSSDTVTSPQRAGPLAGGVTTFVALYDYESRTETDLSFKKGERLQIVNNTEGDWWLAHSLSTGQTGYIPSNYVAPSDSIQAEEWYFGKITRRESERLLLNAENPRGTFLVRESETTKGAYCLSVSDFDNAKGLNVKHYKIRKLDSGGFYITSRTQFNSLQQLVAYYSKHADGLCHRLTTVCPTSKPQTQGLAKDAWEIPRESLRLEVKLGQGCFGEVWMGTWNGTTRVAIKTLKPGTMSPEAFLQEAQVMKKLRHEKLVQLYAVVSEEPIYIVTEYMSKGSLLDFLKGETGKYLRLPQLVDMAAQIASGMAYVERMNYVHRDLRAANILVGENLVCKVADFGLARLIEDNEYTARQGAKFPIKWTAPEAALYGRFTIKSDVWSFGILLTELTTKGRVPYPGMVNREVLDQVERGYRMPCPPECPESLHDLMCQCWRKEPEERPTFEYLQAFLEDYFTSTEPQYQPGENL
T1 sequence (P62942 whole entry, looked up, species assumed, the tested form may be a part): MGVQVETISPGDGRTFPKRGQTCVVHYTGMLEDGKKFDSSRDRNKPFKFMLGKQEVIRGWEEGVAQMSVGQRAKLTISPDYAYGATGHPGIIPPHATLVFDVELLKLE
Chain of DDR2 (Q16832 22-855, species assumed): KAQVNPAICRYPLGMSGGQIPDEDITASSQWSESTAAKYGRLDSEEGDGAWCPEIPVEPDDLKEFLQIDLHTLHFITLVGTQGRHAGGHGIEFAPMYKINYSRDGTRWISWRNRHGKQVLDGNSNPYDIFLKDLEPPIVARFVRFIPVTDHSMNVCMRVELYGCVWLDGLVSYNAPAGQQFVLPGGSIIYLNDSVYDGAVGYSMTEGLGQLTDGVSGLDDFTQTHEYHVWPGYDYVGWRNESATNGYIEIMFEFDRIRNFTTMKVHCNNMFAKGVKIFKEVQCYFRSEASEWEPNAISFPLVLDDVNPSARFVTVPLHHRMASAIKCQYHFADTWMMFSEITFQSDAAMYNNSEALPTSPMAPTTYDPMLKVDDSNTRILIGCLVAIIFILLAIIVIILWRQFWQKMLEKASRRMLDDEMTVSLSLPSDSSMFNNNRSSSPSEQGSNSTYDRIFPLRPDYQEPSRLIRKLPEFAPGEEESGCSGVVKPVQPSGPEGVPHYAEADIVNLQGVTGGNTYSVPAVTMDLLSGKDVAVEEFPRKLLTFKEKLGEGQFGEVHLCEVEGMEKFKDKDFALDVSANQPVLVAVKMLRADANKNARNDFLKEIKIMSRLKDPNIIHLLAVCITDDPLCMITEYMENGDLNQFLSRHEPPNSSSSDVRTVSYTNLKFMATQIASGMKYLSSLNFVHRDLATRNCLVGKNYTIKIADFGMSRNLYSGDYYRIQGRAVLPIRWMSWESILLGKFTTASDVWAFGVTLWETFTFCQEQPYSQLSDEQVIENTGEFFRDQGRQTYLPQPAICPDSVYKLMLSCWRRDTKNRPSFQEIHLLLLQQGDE
Chain of Src (P12931 whole entry, species assumed): as the sequence (P12931 whole entry, looked up, species assumed, the tested form may be a part) above
Chain of Csk (P41240 whole entry, species assumed): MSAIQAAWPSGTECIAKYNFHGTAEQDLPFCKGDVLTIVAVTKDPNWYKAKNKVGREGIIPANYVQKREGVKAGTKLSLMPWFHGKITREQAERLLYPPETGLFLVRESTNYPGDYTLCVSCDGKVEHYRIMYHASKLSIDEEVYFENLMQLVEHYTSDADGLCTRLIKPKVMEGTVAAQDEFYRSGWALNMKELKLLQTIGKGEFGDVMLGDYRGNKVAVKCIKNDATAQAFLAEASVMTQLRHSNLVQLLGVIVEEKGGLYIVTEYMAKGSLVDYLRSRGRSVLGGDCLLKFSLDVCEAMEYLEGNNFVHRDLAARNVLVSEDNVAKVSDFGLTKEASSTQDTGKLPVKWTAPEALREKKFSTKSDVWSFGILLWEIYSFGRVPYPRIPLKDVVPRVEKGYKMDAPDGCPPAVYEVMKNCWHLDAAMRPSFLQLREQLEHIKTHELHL
T2 sequence (P62942 whole entry): as the sequence (P62942 whole entry, looked up, species assumed, the tested form may be a part) above
Chain of Src / HA-FKBP12 (P12931 whole entry, looked up): as the sequence (P12931 whole entry, looked up, species assumed, the tested form may be a part) above
Chain of Src / HA-FKBP12 (P62942 whole entry, looked up): as the sequence (P62942 whole entry, looked up, species assumed, the tested form may be a part) above

`CO[C@H]1C[C@@H](C)C/C(C)=C/[C@@H](CCCC(=O)N2CCN(c3cc(Nc4ncc(C(=O)Nc5c(C)cccc5Cl)s4)nc(C)n3)CC2)C(=O)C[C@H](O)[C@@H](C)[C@@H](/C(C)=C/[C@@H]2CC[C@@H](O)[C@H](OC)C2)OC(=O)[C@@H]2CCCCN2C(=O)C(=O)[C@]2(O)O[C@H]1[C@@H](OC)C[C@H]2C` [FK506-dasatinib] was tested, and the “inhibition of TCR signaling / cellular activity” value [1] was “potently inhibits TCR signaling”, the cellular retention time ([1]; Jurkat cells, 1 h treatment then washout, monitored over 24 h) was “long cellular retention time” and the “concentration inhibiting growth of K562 cells” value [2] was “sub-nanomolar”. For the same molecule, the “growth inhibitory activity in presence of RapaBlock” value ([2]; with RapaBlock) was “diminished by RapaBlock”, the ternary complex formation [3] was “forms a stable ternary complex” and the Kd [4] was 23 nM. For the same molecule, the “Potency of inhibition upon FKBP12 supplementation” value [5, 21] was “equipotent”, the “IC50 compared to dasatinib” value [5, 22] was “more than ten-fold greater” and the “Potency of inhibition upon FKBP12 supplementation” value [6, 21] was “equipotent”. The “IC50 compared to dasatinib” value [6, 22] was “more than ten-fold greater”, the “Extent of kinase inhibition at 1 μM” value ([7]; 10 μM recombinant FKBP12, 1 μM inhibitor) was “failing to fully inhibit” and the “Potency of inhibition upon FKBP12 supplementation” value [7, 21] was “inferior to dasatinib”. The “IC50 compared to dasatinib” value [7, 22] was “more than ten-fold greater”, the “Number of kinases inhibited >70% by both inhibitors” value [8] was 23 and the “Complex formation of Src kinase domain and FKBP12” value [9] was “induced the formation of a stable complex”. The “Stabilization of both proteins toward thermal denaturation” value [10] was “to a greater extent than dasatinib alone”, the “Co-immunoprecipitation of Src with HA-FKBP12” value [11] was “co-immunoprecipitated” and the “Inhibition of phosphotyrosine signaling in the presence of blocker” value ([12]; 100 nM FK506-dasatinib + 10 μM RapaBlock) was “completely neutralized”. The “Total phospho-tyrosine level and phosphorylation of TCR signaling proteins” value ([12]; 100 nM, Jurkat cells stimulated with OKT3) was “dampened”, the Lowest effective concentration ([12]; Jurkat cells stimulated with OKT3) was no more than 10 nM and the EC50 ([12]; Jurkat cells stimulated with OKT3, read-out: EC50 (phosphotyrosine signal)) was 3.4 nM. For the same molecule, the “Number of kinases inhibited >70%” value [13] was 9, the “Time after drug washout to restored phosphotyrosine signal” value [14] was greater than 24 h and the “Fold increase of IC50 on addition of RapaBlock” value ([15]; 10 μM RapaBlock) was greater than 200 fold. The IC50 ([15]; absent ZZY05-026 (RapaBlock)) was 0.053 nM, the IC50 ([15]; with 10 μM RapaBlock) was 10.2 nM and the kinase inhibition [16] was “attenuated kinase inhibition”. For the same molecule, the FKBP12 binding [17] was “maintains potent FKBP12 binding”.

With `C=CC(=O)N1CCN(c2nc(NCCC(=O)NCCNC(=O)CCC[C@@H](C)[C@@H](O)[C@H]3C(=O)N[C@@H](CC)C(=O)N(C)CC(=O)N(C)[C@@H](CC(C)C)C(=O)N[C@@H](C(C)C)C(=O)N(C)[C@@H](CC(C)C)C(=O)N[C@@H](C)C(=O)N[C@H](C)C(=O)N(C)[C@@H](CC(C)C)C(=O)N(C)[C@@H](CC(C)C)C(=O)N(C)[C@@H](C(C)C)C(=O)N3C)nc3c(F)c(-c4c(O)cccc4F)c(Cl)cc23)CC1` [ZZY07-014] the “melting curve of KRAS•CypA•compound complex” value [18] was 2-stage melting curve.

With `C=CC(=O)Nc1cc(Cl)cc(NC(=O)c2cnn(-c3ccc(OCC(=O)N4CCN(C(=O)CCC[C@@H](C)[C@@H](O)[C@H]5C(=O)N[C@@H](CC)C(=O)N(C)CC(=O)N(C)[C@@H](CC(C)C)C(=O)N[C@@H](C(C)C)C(=O)N(C)[C@@H](CC(C)C)C(=O)N[C@@H](C)C(=O)N[C@H](C)C(=O)N(C)[C@@H](CC(C)C)C(=O)N(C)[C@@H](CC(C)C)C(=O)N(C)[C@@H](C(C)C)C(=O)N5C)CC4)cc3)c2C(F)(F)F)c1` [ZZY08-058] the “ternary complex formation with HRAS and CypA” value [19] was “forms a ternary complex”, the Sos-mediated nucleotide exchange ([19]; 1 μM Ras•GDP, 1 μM Mant-GDP, 10 mM EDTA or 1 μM Sos) was “inhibits Sos-mediated nucleotide exchange” and the “Ras•Raf binding of HRAS•CypA•compound ternary complex” value [20] was “does not seem to impair Ras•Raf binding”.
